The subject of assay [1] is ex-vivo Kultur von Haarfollikeln. Particulars: ex vivo culture of hair follicles; cited from earlier work.
The target in assay [2] is T1, 5-α-Reduktase Typ I (Homo sapiens, UniProt P18405).
T1 construct: expressed in transfected cells; host or cells: HEK293 (HEK I), stably transfected; gift of Prof; R. W. Hartmann, Saarland University; particulate fraction of the cell homogenate used
T1 sequence (P18405 1-259): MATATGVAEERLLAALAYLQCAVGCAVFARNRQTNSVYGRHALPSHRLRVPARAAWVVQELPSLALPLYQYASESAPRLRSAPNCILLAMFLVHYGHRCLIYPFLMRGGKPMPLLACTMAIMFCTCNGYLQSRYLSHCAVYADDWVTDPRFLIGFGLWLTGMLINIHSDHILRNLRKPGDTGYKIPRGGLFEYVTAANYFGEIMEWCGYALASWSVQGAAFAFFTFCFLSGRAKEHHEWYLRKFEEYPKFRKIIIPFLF
Kind of assay: Cell-free in vitro 5α-reductase type I inhibition assay (HEK I cell homogenate, androstenedione conversion, LC-HRMS). The assay is classed as biochemical. Conditions: concentration giving 50% inhibition; Abbildung 1; read-out: IC50-Wert für die 5 alpha Reduktase vom Typ I.
Protocol: (§1) Die HEK I Zellen exprimieren rekombinante 5 alpha Reduktase vom Typ I, während die HEK II Zellen rekombinante 5 alpha Reduktase vom Typ II exprimieren.
(§2) HEK I und HEK II Zellen wurden in DMEM (Dulbecco's modified eagle medium, ccpro GmbH) (pH 7.4) mit 10 % FCS (Fetal calf serum, PAN), Penicillin/Streptomycin (100 U/ml und 100 µg/ml) und 0.5 mg/ml Geneticin-418-sulfat in einer befeuchteten 5 % CO2 Atmosphäre bei 37°C kultiviert.
(§3) Herstellung der 5-α-Reduktase Typ I und II enthaltenen Zellfraktionen: Für den Zell-freien in vitro assays wurden HEK I oder HEK II geerntet, durch Zentrifugation (500 x g) vom Zellkulturmedium befreit und re-suspended in einem Homogenisierungs-Puffer bestehend aus 50 mM Tris-HCI (pH 7.4), 300 mM Saccharose, 0.1 mM EDTA, 10 mM DTT and 100 µM PMSF. Durch Einfrieren bei - 196 °C und Auftauen auf Eis, wurden die Zellen solubilisiert. Nach einer Inkubations-Zeitraum von 30 min bei 4°C mit 1 mg/ml DNAse in 50 mM MgCl2 und zwischenzeitlich kräftigen Schütteln, wurde das erhaltene Homogenisat bei 20,200 x g in einer gekühlten Zentrifuge für 50 min bei 4°C zentrifugiert. Das Pellet wurde im Homogenisierungs-Puffer re-suspendiert und wieder bei 20,200 x g für 30 Minuten bei at 4°C zentrifugiert. Diese Prozedur wurde zweimal wiederholt. […] Der Protein-Gehalt wurde gemäß der BCA-Methode mit dem kommerziell erhältlichen BCA-Protein Assay Kit von Pierce quantifiziert. […]

Assay [3] deals with T2, 5-α-Reduktase Typ II (Homo sapiens, UniProt P31213).
T2 sequence (P31213 1-254): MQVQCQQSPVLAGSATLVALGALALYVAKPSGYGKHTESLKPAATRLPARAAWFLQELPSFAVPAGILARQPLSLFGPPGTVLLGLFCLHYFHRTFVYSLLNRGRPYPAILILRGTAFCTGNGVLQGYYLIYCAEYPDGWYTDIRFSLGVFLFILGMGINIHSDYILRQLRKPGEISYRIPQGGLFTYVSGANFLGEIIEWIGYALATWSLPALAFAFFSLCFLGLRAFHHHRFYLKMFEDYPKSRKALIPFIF
Kind of assay: Cell-free in vitro 5α-reductase type II inhibition assay (HEK II cell homogenate, androstenedione conversion, LC-HRMS). The assay is classed as biochemical.
Protocol: as §1, §2, §3

The source of these data is patent EP3763226A1, “COMPOSITION FOR REDUCING HAIR LOSS AND IMPROVING HAIR GROWTH IN CASES OF ANDROGENETIC ALOPECIA” (Merz Pharma GmbH & Co. KGaA, priority 2019, dated 2021).

Take `O=C(O[C@@H]1Cc2c(O)cc(O)cc2O[C@@H]1c1cc(O)c(O)c(O)c1)c1cc(O)c(O)c(O)c1` [Epigallocatechin-3-gallate]: in assay [1], the Haarwachstum entry is given as “stimuliert”.
For orientation: IC50 means the concentration that gives 50% inhibition. Regarding `CC(C)(C)NC(=O)[C@H]1CC[C@H]2[C@@H]3CC[C@H]4NC(=O)C=C[C@]4(C)[C@H]3CC[C@]12C` [Finasterid], the IC50 in assay [2] is 376 nM; in assay [3] (concentration giving 50% inhibition, Abbildung 1, read-out: IC50-Wert für die 5 alpha Reduktase vom Typ II) it was 1.89 nM. The “Wirkung auf die 5-alpha Reduktase vom Typ II stärker als auf Typ I” value in assay [3] (ratio of the concentrations for 50% inhibition, type I vs type II) is listed as “ca. 200 fach”.
